The source of these data is patent US20150065509A1 (priority 2012, published 2015).

Converted amounts (≈) assume the structure as drawn. Where two headings read alike, the source gives them in different places.

In one data set the test system is B. anthracis Sterne. As to the kind of experiment: microbe, parasite or virus in culture. The format is cell-based. The note with it: for MIC: Bacillus anthracis, 16 h, read-out: MIC (Minimum Inhibitory Concentration).
Data set [1] deals with dihydrofolate reductase (DHFR) (Bacillus anthracis, UniProt Q81R22). Put plainly: biochemical. The format is biochemical, B. anthracis Sterne.
Sequence of dihydrofolate reductase (DHFR) (Q81R22 1-162): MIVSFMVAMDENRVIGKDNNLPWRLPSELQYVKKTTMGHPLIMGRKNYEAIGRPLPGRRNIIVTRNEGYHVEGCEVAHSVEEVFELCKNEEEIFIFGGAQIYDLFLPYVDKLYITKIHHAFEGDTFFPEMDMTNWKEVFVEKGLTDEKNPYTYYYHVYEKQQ

For the compound `CCCC1c2ccccc2C=NN1C(=O)/C=C/c1cc(Cc2c(C)nc(N)nc2N)cc(OC)c1OC` (centres unmarked) [Compound 10, (E)-3-(5-((2,4-Diamino-6-methylpyrimidin-5-yl)methyl)-2,3-dimethoxyphenyl)-1-(1-propyl-phthalazin-2(1H)-yl)prop-2-en-1-one], the melting point was 137 to 138 °C. Moreover, the MIC with B. anthracis Sterne was determined as 8000 µg/mL (≈ 16 mM). In addition, the IC50 in data set [1] was found to be 0.517 µM.

Take `CCCC1c2ccccc2C=NN1C(=O)/C=C/c1cc(Cc2c(N)nc(N)nc2CC)cc(OC)c1OC` (centres unmarked) [Compound 11, (E)-3-(5-((2,4-Diamino-6-ethylpyrimidin-5-yl)methyl)-2,3-dimethoxyphenyl)-1-(propyl-phthalazin-2(1H)-yl)prop-2-en-1-one]: in the data set with B. anthracis Sterne, the “MIC (Minimum Inhibitory Concentration)” value turned out to be 4000 µg/mL (≈ 7.77 mM). In addition, the IC50 in data set [1] (read-out: IC50) was 17.4 µM.

`CCCc1nc(N)nc(N)c1Cc1cc(/C=C/C(=O)N2N=Cc3ccccc3C2CCC)c(OC)c(OC)c1` (centres unmarked) [Compound 12, (E)-3-(5-((2,4-Diamino-6-propylpyrimidin-5-yl)methyl)-2,3-dimethoxyphenyl)-1-(1-propyl-phthalazin-2(1H)-yl)prop-2-en-1-one] showed a melting point of 140 to 141 °C. In the data set with B. anthracis Sterne, the MIC came to 1000 µg/mL (≈ 1.89 mM). In addition, the IC50 in data set [1] stood at 17.1 µM.

On to `COc1cc(Cc2c(C)nc(N)nc2N)cc(/C=C/C(=O)N2N=Cc3ccccc3C2C=C(C)C)c1OC` (centres unmarked) [Compound 13, (E)-3-(5-((2,4-Diamino-6-methylpyrimidin-5-yl)methyl)-2,3-dimethoxyphenyl)-1-(isobutenylphthalazin-2(1H)-yl)prop-2-en-1-one], for which the “MIC (Minimum Inhibitory Concentration)” value in the data set on B. anthracis Sterne came out at 4000 µg/mL (≈ 7.8 mM). Further, in data set [1] (read-out: IC50), the IC50 amounted to 0.102 µM.

Consider `CCc1nc(N)nc(N)c1Cc1cc(/C=C/C(=O)N2N=Cc3ccccc3C2C=C(C)C)c(OC)c(OC)c1` (centres unmarked) [Compound 14, (E)-3-(5-((2,4-Diamino-6-ethylpyrimidin-5-yl)methyl)-2,3-dimethoxyphenyl)-1-(isobutenylphthalazin-2(1H)-yl)prop-2-en-1-one], for which the “MIC (Minimum Inhibitory Concentration)” value in the data set with B. anthracis Sterne was 4000 µg/mL (≈ 7.6 mM). The IC50 in data set [1] (read-out: IC50) was found to be 0.181 µM.

On to `CCCc1nc(N)nc(N)c1Cc1cc(/C=C/C(=O)N2N=Cc3ccccc3C2C=C(C)C)c(OC)c(OC)c1` (centres unmarked) [Compound 15, (E)-3-(5-((2,4-Diamino-6-propylpyrimidin-5-yl)methyl)-2,3-dimethoxyphenyl)-1-(isobutenylphthalazin-2(1H)-yl)prop-2-en-1-one], for which the “MIC (Minimum Inhibitory Concentration)” value against B. anthracis Sterne is 2000 µg/mL (≈ 3.7 mM). For the same compound, the IC50 in data set [1] (read-out: IC50) came to 18 µM.

A word on the melting point: it is the temperature of the solid-liquid transition. The IC50 is the concentration that inhibits the measured activity by half.
